From PubChem BioAssay (NCI)
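Step 1: Grow cells in 96-well plates. Step 2: Expose to compound for 48 hours at 5 concentrations. Step 3: Interpolate endpoints linearly; if unreached, use highest concentration. At the GI50, growth is halved. The concentration for full growth arrest is given as TGI.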

What was measured:
Experiment in all cases: inhibition of tumour cell growth, NCI panel, 48 h
MDA-MB-435 = test system: MDA-MB-435
ACHN renal = test system: ACHN renal
KM12 colon = test system: KM12 colon
MALME-3M melanoma = test system: MALME-3M melanoma
UACC-257 melanoma = test system: UACC-257 melanoma
UACC-62 melanoma = test system: UACC-62 melanoma
CAKI-1 renal = test system: CAKI-1 renal
PC-3 prostate = test system: PC-3 prostate
EKVX NSCLC = test system: EKVX NSCLC
DU-145 prostate = test system: DU-145 prostate
HS 578T breast = test system: HS 578T breast
786-0 renal = test system: 786-0 renal
K-562 leukemia = test system: K-562 leukemia
NCI-H522 lung = test system: NCI-H522 lung
SN12C renal = test system: SN12C renal
SK-MEL-5 melanoma = test system: SK-MEL-5 melanoma
NCI/ADR-RES ovarian = test system: NCI/ADR-RES ovarian
TK-10 renal = test system: TK-10 renal
SR leukemia = test system: SR leukemia
HCC-2998 colon = test system: HCC-2998 colon
UO-31 renal = test system: UO-31 renal
SW-620 colon = test system: SW-620 colon
OVCAR-4 ovarian = test system: OVCAR-4 ovarian
HL-60(TB) leukemia = test system: HL-60(TB) leukemia
SF-268 CNS = test system: SF-268 CNS
SF-295 CNS = test system: SF-295 CNS
NCI-H460 lung = test system: NCI-H460 lung
A549 NSCLC = test system: A549 NSCLC
MOLT-4 leukemia = test system: MOLT-4 leukemia

SMILES: CCCCCC[n+]1noc(N)c1-c1ccc(-c2c(N)on[n+]2CCCCCC)cc1
- GI50 (MDA-MB-435): 1.76 mg/L
- TGI (MDA-MB-435): 3.23 mg/L
- GI50 (ACHN renal): 7.74 mg/L
- TGI (ACHN renal): 20.7 mg/L
- GI50 (KM12 colon): 3.97 mg/L
- TGI (KM12 colon): 14.6 mg/L
- GI50 (MALME-3M melanoma): 1.81 mg/L
- TGI (MALME-3M melanoma): 3.33 mg/L
- GI50 (UACC-257 melanoma): 1.73 mg/L
- TGI (UACC-257 melanoma): 3.34 mg/L
- GI50 (UACC-62 melanoma): 1.94 mg/L
- TGI (UACC-62 melanoma): 3.51 mg/L
- GI50 (CAKI-1 renal): 2.18 mg/L
- TGI (CAKI-1 renal): 5.22 mg/L
- GI50 (PC-3 prostate): 3.46 mg/L
- TGI (PC-3 prostate): 16.8 mg/L
- GI50 (EKVX NSCLC): 7.71 mg/L
- TGI (EKVX NSCLC): 23.2 mg/L
- GI50 (DU-145 prostate): 9.82 mg/L
- TGI (DU-145 prostate): 24.4 mg/L
- GI50 (HS 578T breast): 2.13 mg/L
- TGI (HS 578T breast): 5.06 mg/L
- GI50 (786-0 renal): 1.61 mg/L
- TGI (786-0 renal): 3.32 mg/L
- GI50 (K-562 leukemia): 1.79 mg/L
- TGI (K-562 leukemia): 3.8 mg/L
- GI50 (NCI-H522 lung): 1.99 mg/L
- TGI (NCI-H522 lung): 3.69 mg/L
- GI50 (SN12C renal): 6.2 mg/L
- TGI (SN12C renal): 17.3 mg/L
- GI50 (SK-MEL-5 melanoma): 1.66 mg/L
- TGI (SK-MEL-5 melanoma): 3.04 mg/L
- GI50 (NCI/ADR-RES ovarian): 12.5 mg/L
- TGI (NCI/ADR-RES ovarian): 25.6 mg/L
- GI50 (TK-10 renal): 2.81 mg/L
- TGI (TK-10 renal): 8.51 mg/L
- GI50 (SR leukemia): 1.89 mg/L
- TGI (SR leukemia): 4.87 mg/L
- GI50 (HCC-2998 colon): 1.45 mg/L
- TGI (HCC-2998 colon): 2.79 mg/L
- GI50 (UO-31 renal): 1.89 mg/L
- TGI (UO-31 renal): 4.46 mg/L
- GI50 (SW-620 colon): 2.32 mg/L
- TGI (SW-620 colon): 6.14 mg/L
- GI50 (OVCAR-4 ovarian): 2.62 mg/L
- TGI (OVCAR-4 ovarian): 14.9 mg/L
- GI50 (HL-60(TB) leukemia): 1.61 mg/L
- TGI (HL-60(TB) leukemia): 3.07 mg/L
- GI50 (SF-268 CNS): 7.82 mg/L
- TGI (SF-268 CNS): 22.4 mg/L
- GI50 (SF-295 CNS): 1.88 mg/L
- TGI (SF-295 CNS): 3.73 mg/L
- GI50 (NCI-H460 lung): 2.03 mg/L
- TGI (NCI-H460 lung): 4.7 mg/L
- GI50 (A549 NSCLC): 5.25 mg/L
- TGI (A549 NSCLC): 13.9 mg/L
- GI50 (MOLT-4 leukemia): 2.36 mg/L
- TGI (MOLT-4 leukemia): 7.33 mg/L
